Results: the supplement of paper PMC10307832

Experiments:
Experiment in all cases: relative viability (nuclei count vs DMSO), 5 days (fraction); higher = more cells survive
[1] = compound: C[C@@H](Oc1cc(-c2cnn(C3CCNCC3)c2)cnc1N)c1c(Cl)ccc(F)c1Cl [Crizotinib] + C[C@]1(O)C[C@@H](c2nc(-c3ccc4ccc(-c5ccccc5)nc4c3)c3c(N)nccn32)C1 [Linsitinib] (partner 1 µM)
Outline: (§1)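 Medians of duplicate plates are given as relative viability. That measure is the nuclei count in treated wells divided by the count in vehicle wells. Counts were taken on 4× images of lung cancer cell lines in 1536-well plates, 5 days after pin-tool dosing the day after seeding with one drug alone or a fixed anchor-drug dose plus five library-drug doses (not always all listed) in √10 steps.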

[2] = compound: O=C(c1cc(Cc2n[nH]c(=O)c3ccccc23)ccc1F)N1CCN(C(=O)C2CC2)CC1 [Olaparib] + Cc1nc(Nc2ncc(C(=O)Nc3c(C)cccc3Cl)s2)cc(N2CCN(CCO)CC2)n1 [Dasatinib] (partner 0.075 µM)
Outline: as §1

[3] = compound: CC(C)C[C@H](NC(=O)[C@H](CCc1ccccc1)NC(=O)CN1CCOCC1)C(=O)N[C@@H](Cc1ccccc1)C(=O)N[C@@H](CC(C)C)C(=O)[C@@]1(C)CO1 [Carfilzomib] + C[C@]1(O)C[C@@H](c2nc(-c3ccc4ccc(-c5ccccc5)nc4c3)c3c(N)nccn32)C1 [Linsitinib] (partner 1 µM)
Outline: as §1

[4] = compound: O=C(c1cc(Cc2n[nH]c(=O)c3ccccc23)ccc1F)N1CCN(C(=O)C2CC2)CC1 [Olaparib] + COc1cccc2cc(-c3nc([C@H]4CC[C@H](C(=O)O)CC4)n4ncnc(N)c34)[nH]c12 [OSI-027] (partner 0.5 µM)
Outline: as §1

Row | Cell Line | relative viability ([1]; first compound 0.01 µM) | relative viability ([1]; first compound 0.03162 µM) | relative viability ([1]; first compound 0.1 µM) | relative viability ([1]; first compound 0.3162 µM) | relative viability ([1]; first compound 1 µM) | relative viability ([2]; first compound 0.08 µM) | relative viability ([2]; first compound 0.253 µM) | relative viability ([2]; first compound 2.53 µM) | relative viability ([2]; first compound 8 µM) | relative viability ([3]; first compound 0.001 µM) | relative viability ([3]; first compound 0.003162 µM) | relative viability ([3]; first compound 0.01 µM) | relative viability ([3]; first compound 0.03162 µM) | relative viability ([3]; first compound 0.1 µM) | relative viability ([4]; first compound 0.08 µM) | relative viability ([4]; first compound 0.253 µM) | relative viability ([4]; first compound 2.53 µM) | relative viability ([4]; first compound 8 µM)
1 | PC-3 [JPC-3] | 0.935 | 0.977 | 1.04 | 0.9 | 0.973 | 1.08 | 0.902 | 1.01 | 0.895 | 1 | 0.881 | 1 | 0.86 | 0.466 | 0.825 | 0.711 | 0.824 | 0.747
2 | PC-14 | 0.913 |  | 0.974 | 0.905 | 1.02 | 0.333 | 0.231 | 0.311 | 0.205 | 1.09 | 0.937 | 1.08 | 0.215 | 0.12 | 1.27 | 0.795 | 0.805 | 0.471
3 | RERF-LC-KJ | 0.972 | 0.94 |  | 0.935 |  | 0.891 | 0.81 | 0.858 | 0.8 | 0.888 | 0.919 | 1.05 | 0.776 | 0.353 | 0.66 | 0.592 | 0.598 | 0.614
